By inhibition is commonly meant the relative decrease from the control value, in per cent.

These results are taken from paper PMC11233931, “Remodeling tumor‐associated macrophage for anti‐cancer effects by rational design of irreversible inhibition of mitogen‐activated protein kinase‐activated protein kinase 2” (MedComm, 2024).

Common to all, as to assay: Eurofins kinase selectivity profile against 380 other human recombinant kinases (Table S2)
Assay type in all cases: biochemical

For test [1], the target named is T1, 380 human recombinant protein kinases (Homo sapiens, UniProt Q15835).
T1 construct: purchased Eurofins (Celle Lévescault)
T1 sequence (Q15835 1-563): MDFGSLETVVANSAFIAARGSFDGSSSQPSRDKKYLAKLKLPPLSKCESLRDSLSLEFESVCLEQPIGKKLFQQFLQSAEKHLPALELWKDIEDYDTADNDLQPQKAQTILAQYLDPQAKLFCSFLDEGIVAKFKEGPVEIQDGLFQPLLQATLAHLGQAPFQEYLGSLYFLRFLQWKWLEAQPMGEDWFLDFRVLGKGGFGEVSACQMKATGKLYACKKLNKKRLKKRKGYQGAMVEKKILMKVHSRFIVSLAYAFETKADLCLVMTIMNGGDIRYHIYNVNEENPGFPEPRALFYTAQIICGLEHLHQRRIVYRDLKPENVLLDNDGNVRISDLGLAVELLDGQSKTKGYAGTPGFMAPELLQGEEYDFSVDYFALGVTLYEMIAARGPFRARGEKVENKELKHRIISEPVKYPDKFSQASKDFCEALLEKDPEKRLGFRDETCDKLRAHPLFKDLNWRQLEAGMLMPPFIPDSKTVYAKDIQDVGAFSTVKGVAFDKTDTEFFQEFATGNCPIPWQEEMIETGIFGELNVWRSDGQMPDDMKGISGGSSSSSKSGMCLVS
Conditions: GRK1(h), read-out: Inhibition rate. The essentials:
(§1)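 Off-target profiling: one compound assayed by a commercial provider over 380 recombinant human protein kinases at various concentrations.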

In test [2] the target is T2, 380 human recombinant protein kinases (Homo sapiens, UniProt Q99759).
T2 construct: purchased Eurofins (Celle Lévescault)
T2 sequence (Q99759 1-626): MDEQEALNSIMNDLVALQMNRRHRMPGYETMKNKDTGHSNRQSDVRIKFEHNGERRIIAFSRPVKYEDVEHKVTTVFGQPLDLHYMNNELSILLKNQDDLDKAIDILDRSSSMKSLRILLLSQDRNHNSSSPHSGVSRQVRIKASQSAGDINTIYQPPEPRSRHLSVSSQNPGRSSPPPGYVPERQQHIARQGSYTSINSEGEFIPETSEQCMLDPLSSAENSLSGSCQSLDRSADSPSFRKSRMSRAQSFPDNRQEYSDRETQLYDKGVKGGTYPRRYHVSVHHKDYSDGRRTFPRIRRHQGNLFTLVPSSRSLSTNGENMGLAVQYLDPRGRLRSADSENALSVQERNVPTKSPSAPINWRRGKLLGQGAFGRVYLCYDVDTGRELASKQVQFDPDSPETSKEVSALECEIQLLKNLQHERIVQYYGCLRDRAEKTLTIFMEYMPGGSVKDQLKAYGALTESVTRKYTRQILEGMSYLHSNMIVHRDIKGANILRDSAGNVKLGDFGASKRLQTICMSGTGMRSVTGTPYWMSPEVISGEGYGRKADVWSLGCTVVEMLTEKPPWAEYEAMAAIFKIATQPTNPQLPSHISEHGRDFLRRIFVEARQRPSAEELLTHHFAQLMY
To be noted: MEKK3(h), read-out: Inhibition rate. The method, boiled down:
as §1

Test [3] concerns the target T3, 380 human recombinant protein kinases (Homo sapiens, UniProt O00329).
T3 construct: purchased Eurofins (Celle Lévescault)
T3 sequence (O00329 1-1044): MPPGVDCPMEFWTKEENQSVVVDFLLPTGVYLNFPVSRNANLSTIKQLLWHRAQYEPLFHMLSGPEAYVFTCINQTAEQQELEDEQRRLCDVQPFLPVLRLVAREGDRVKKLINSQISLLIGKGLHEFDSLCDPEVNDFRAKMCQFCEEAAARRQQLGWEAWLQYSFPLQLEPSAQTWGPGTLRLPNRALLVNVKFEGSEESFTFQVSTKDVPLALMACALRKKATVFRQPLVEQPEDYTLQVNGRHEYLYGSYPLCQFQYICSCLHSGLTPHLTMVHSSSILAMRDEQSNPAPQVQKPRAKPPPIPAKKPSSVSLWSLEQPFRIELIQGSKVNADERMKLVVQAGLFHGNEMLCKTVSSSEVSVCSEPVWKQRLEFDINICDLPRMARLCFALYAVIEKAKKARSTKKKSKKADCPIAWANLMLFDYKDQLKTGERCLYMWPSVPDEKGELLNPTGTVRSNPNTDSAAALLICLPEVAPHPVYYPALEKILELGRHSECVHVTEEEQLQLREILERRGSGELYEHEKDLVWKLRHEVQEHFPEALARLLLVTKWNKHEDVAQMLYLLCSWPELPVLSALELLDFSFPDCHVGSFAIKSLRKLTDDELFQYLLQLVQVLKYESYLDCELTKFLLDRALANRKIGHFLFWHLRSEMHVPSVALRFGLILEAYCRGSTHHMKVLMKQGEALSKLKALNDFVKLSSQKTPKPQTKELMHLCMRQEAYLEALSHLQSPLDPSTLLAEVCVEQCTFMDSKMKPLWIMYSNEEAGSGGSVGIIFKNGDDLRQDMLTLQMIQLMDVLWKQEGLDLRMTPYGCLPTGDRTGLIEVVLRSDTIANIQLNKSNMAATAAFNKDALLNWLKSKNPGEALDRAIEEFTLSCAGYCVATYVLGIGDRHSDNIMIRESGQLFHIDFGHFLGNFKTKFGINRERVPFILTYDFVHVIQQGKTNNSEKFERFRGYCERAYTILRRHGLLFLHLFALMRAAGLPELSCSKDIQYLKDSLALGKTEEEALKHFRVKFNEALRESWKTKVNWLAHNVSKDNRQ
Conditions: PI3 Kinase (p110δ/p85α)(h), read-out: Inhibition rate (%). The essentials: as §1

In test [4] the target is T4, 380 human recombinant protein kinases (Homo sapiens, UniProt P29317).
T4 construct: purchased Eurofins (Celle Lévescault)
T4 sequence (P29317 24-976): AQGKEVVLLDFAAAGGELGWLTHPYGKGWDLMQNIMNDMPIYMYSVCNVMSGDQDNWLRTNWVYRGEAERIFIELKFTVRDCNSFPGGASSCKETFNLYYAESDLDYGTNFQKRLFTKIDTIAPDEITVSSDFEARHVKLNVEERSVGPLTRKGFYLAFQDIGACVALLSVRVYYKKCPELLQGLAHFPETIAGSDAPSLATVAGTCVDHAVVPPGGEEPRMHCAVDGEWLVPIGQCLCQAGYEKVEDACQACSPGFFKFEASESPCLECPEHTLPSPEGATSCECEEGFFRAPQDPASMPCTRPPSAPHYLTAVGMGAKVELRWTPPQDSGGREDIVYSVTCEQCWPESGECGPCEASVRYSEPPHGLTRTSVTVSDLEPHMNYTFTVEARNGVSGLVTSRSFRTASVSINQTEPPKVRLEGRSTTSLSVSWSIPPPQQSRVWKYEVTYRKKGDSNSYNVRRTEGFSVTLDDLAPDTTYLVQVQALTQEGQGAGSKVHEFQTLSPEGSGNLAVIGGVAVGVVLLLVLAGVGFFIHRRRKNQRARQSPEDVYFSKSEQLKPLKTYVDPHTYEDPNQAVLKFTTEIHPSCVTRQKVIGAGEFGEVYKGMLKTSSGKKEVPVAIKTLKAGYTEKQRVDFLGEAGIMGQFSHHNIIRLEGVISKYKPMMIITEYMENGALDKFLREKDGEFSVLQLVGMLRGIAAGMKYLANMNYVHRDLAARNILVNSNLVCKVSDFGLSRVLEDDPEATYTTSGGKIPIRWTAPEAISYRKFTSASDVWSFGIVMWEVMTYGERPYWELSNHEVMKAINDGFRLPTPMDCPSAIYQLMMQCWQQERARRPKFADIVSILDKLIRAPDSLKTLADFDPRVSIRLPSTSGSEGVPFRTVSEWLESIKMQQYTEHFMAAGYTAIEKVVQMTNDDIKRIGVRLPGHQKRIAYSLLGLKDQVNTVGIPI
Conditions: EphA2(h), read-out: Inhibition rate. The method, boiled down: as §1

Turning to `C=CC(=O)Nc1cc(-c2cc(-c3cc4c([nH]3)CCNC4=O)ccn2)ccc1OC(F)(F)F` [compound 11], the inhibition at 0.01 µM in test [1] (10 nM) was -6%; in test [2] (10 nM) it was -5%; in test [3] (10 nM) it was -3%; in test [4] (10 nM) it was 0%. Moreover, the inhibition at 0.1 µM in test [1] (100 nM) is -4%; in test [2] (100 nM) it was 11%; in test [3] (100 nM), -1%; in test [4] (100 nM), 3%. The inhibition at 1 µM in test [1] (1000 nM) is -1%; in test [2] (1000 nM) it was 12%; in test [3] (1000 nM) it was 2%; in test [4] (1000 nM) it was -2%.
